Assay results from patent US8686044B2, “Amide derivative, pest control agent containing the amide derivative, and use of the amide derivative” (Mitsui Chemicals Agro, Inc., priority 2008, dated 2014).

How the values were obtained:
Format in all cases: in vivo
Spodoptera litura = assay: Pesticidal test against Spodoptera litura (cabbage leaf dip); conditions: foliar, 144 h, concentration 1 ppm, 2-stage larvae, examined after 6 days, 25° C., read-out: pesticidal rate
Procedure, shortened: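 Cabbage leaf pieces dipped 30 seconds in compound solution at a predetermined concentration and air-dried, then offered to second-stage larvae, five per group in two replicates. Held at 25° C. Living and dead larvae counted after 6 days.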

Plutella xylostella = assay: Pesticidal test against Plutella xylostella (cabbage leaf dip); conditions: foliar, 144 h, concentration 1 ppm, 2-stage larvae, examined after 6 days, 25° C., read-out: pesticidal rate
Procedure, shortened: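 Second-stage larvae (5 per group, two replicates) were released onto air-dried cabbage leaf discs that had been immersed for 30 seconds in compound solution at a set concentration. Mortality was scored after 6 days at 25° C.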

Adoxophyes honmai = assay: Pesticidal test against Adoxophyes honmai (artificial feed dip); conditions: 144 h, 2-stage larvae, examined after 6 days, 25° C., read-out: pesticidal rate; for pest or weed control at 1 ppm: concentration 1 ppm; for pest or weed control at 10 ppm: concentration 10 ppm
Procedure, shortened: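 Second-instar larvae, five per group in duplicate, were released onto air-dried feed slices previously immersed for 30 s in compound solution at a set concentration. Mortality was scored on day 6 at 25° C.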

Helicoverpa armigera = assay: Pesticidal test against Helicoverpa armigera (cabbage leaf disk dip); conditions: foliar, 72 h, concentration 1 ppm, 2-stage larvae, examined after 3 days, 25° C., read-out: pesticidal rate
Procedure, shortened: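 Cabbage leaf disks were dipped for 30 s in test solution at a set concentration and air-dried. Second-instar larvae were placed one per hole and held at 25 °C, with live and dead counts taken after 3 days. Five larvae per group were tested in two replicates.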

Laodelphax striatellus = assay: Pesticidal test against Laodelphax striatellus (rice seedling spray); conditions: 144 h, concentration 100 ppm, 3-stage larvae, examined after 6 days, 25° C., read-out: pesticidal rate
Procedure, shortened: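 Rice seedlings sprayed with 2.5 ml acetone solution of compound at a predetermined concentration, air-dried, then infested with third-stage Laodelphax striatellus larvae in capped water-containing tubes at 25 °C. Living and dead insects counted after 6 days; ten larvae per group, two replicates.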

Musca domestica = assay: Pesticidal test against Musca domestica (petri dish dry film); conditions: 24 h, concentration 100 ppm, female adults, examined after 1 day, 25° C., read-out: pesticidal rate
Procedure, shortened: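 Female adult houseflies were confined at 25° C in capped 9 cm petri dishes coated with an air-dried film from 1 ml acetone solution of compound (predetermined concentration). Mortality was scored 1 day later, two replicates of five per group.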

Blattella germanica = assay: Pesticidal test against Blattella germanica (petri dish dry film); conditions: 24 h, concentration 100 ppm, female adults, examined after 1 day, 25° C., read-out: pesticidal rate
Description: Pesticidal Test against Blattella germanica
1 ml of an acetone solution in which a test compound had been prepared at a predetermined concentration was added dropwise to a petri dish having a diameter of 9 cm, and air-dried, and then the female adults of Blattella germanica were released and the petri dish was capped. They were left to stand in a thermostatic chamber at 25° C., and the numbers of the living pests and the dead pests were examined after 1 day. The test was carried out with five larvae per group in two replicates.

Choristoneura magnanima = assay: Pesticidal test against Choristoneura magnanima (artificial feed dip); conditions: 144 h, concentration 1 ppm, 2-stage larvae, examined after 6 days, 25° C., read-out: pesticidal rate
Procedure, shortened: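 Second-stage larvae, five per group in duplicate, fed artificial diet that had been immersed 30 s in test solution at a predetermined concentration and air-dried. Mortality scored at day 6, 25° C.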

O=C(Nc1c(Br)cc(C(F)(C(F)(F)F)C(F)(F)C(F)(F)F)cc1C(F)(F)F)c1cccc(NC(=O)c2ccccc2F)c1 (stereo not drawn) [6-347]
≥ 70%: pest or weed control at 1 ppm (Spodoptera litura) | pest or weed control at 1 ppm (Plutella xylostella) | pest or weed control at 1 ppm (Adoxophyes honmai) | pest or weed control at 1 ppm (Helicoverpa armigera) | pest or weed control at 100 ppm (Laodelphax striatellus) | pest or weed control at 100 ppm (Musca domestica) | pest or weed control at 100 ppm (Blattella germanica)

O=C(Nc1cccc(C(=O)Nc2c(Br)cc(C(F)(C(F)(F)F)C(F)(F)C(F)(F)F)cc2C(F)(F)F)c1)c1ccc(Cl)nc1 (stereo not drawn) [6-389]
≥ 70%: pest or weed control at 1 ppm (Spodoptera litura) | pest or weed control at 1 ppm (Plutella xylostella) | pest or weed control at 10 ppm (Adoxophyes honmai) | pest or weed control at 1 ppm (Helicoverpa armigera) | pest or weed control at 100 ppm (Musca domestica) | pest or weed control at 100 ppm (Blattella germanica)

O=C(Nc1c(I)cc(C(F)(C(F)(F)F)C(F)(F)C(F)(F)F)cc1C(F)(F)F)c1cccc(NC(=O)c2ccccc2F)c1 (stereo not drawn) [6-503]
≥ 70%: pest or weed control at 1 ppm (Spodoptera litura) | pest or weed control at 1 ppm (Plutella xylostella) | pest or weed control at 1 ppm (Adoxophyes honmai) | pest or weed control at 1 ppm (Helicoverpa armigera) | pest or weed control at 100 ppm (Laodelphax striatellus) | pest or weed control at 100 ppm (Musca domestica) | pest or weed control at 100 ppm (Blattella germanica)

O=C(Nc1c(I)cc(C(F)(C(F)(F)F)C(F)(F)C(F)(F)F)cc1C(F)(F)F)c1cccc(NC(=O)c2cccnc2Cl)c1 (stereo not drawn) [6-538]
≥ 70%: pest or weed control at 1 ppm (Spodoptera litura) | pest or weed control at 1 ppm (Plutella xylostella) | pest or weed control at 1 ppm (Adoxophyes honmai) | pest or weed control at 1 ppm (Helicoverpa armigera) | pest or weed control at 100 ppm (Musca domestica) | pest or weed control at 100 ppm (Blattella germanica)

N#Cc1ccc(C(=O)Nc2cccc(C(=O)Nc3c(I)cc(C(F)(C(F)(F)F)C(F)(F)C(F)(F)F)cc3I)c2F)cc1 (stereo not drawn) [6-1359]
≥ 70%: pest or weed control at 1 ppm (Spodoptera litura) | pest or weed control at 1 ppm (Plutella xylostella) | pest or weed control at 1 ppm (Helicoverpa armigera) | pest or weed control at 100 ppm (Laodelphax striatellus) | pest or weed control at 100 ppm (Musca domestica) | pest or weed control at 100 ppm (Blattella germanica)

O=C(Nc1cccc(C(=O)Nc2c(Br)cc(C(F)(C(F)(F)F)C(F)(F)F)cc2C(F)(F)F)c1F)c1cccc(F)c1 [6-1576]
≥ 70%: pest or weed control at 1 ppm (Spodoptera litura) | pest or weed control at 1 ppm (Plutella xylostella) | pest or weed control at 1 ppm (Adoxophyes honmai) | pest or weed control at 1 ppm (Helicoverpa armigera) | pest or weed control at 100 ppm (Laodelphax striatellus) | pest or weed control at 100 ppm (Musca domestica) | pest or weed control at 100 ppm (Blattella germanica)

N#Cc1cccc(C(=O)Nc2cccc(C(=O)Nc3c(Br)cc(C(F)(C(F)(F)F)C(F)(F)F)cc3C(F)(F)F)c2F)c1 [6-1594]
≥ 70%: pest or weed control at 1 ppm (Spodoptera litura) | pest or weed control at 1 ppm (Plutella xylostella) | pest or weed control at 1 ppm (Adoxophyes honmai) | pest or weed control at 1 ppm (Helicoverpa armigera) | pest or weed control at 100 ppm (Laodelphax striatellus) | pest or weed control at 100 ppm (Musca domestica) | pest or weed control at 100 ppm (Blattella germanica)

N#Cc1ccc(C(=O)Nc2cccc(C(=O)Nc3c(Br)cc(C(F)(C(F)(F)F)C(F)(F)F)cc3C(F)(F)F)c2F)cc1 [6-1595]
≥ 70%: pest or weed control at 1 ppm (Spodoptera litura) | pest or weed control at 1 ppm (Plutella xylostella) | pest or weed control at 1 ppm (Choristoneura magnanima) | pest or weed control at 1 ppm (Helicoverpa armigera) | pest or weed control at 100 ppm (Laodelphax striatellus) | pest or weed control at 100 ppm (Blattella germanica)

N#Cc1ccc(C(=O)Nc2cccc(C(=O)Nc3c(I)cc(C(F)(C(F)(F)F)C(F)(F)F)cc3C(F)(F)F)c2F)cc1 [6-1751]
≥ 70%: pest or weed control at 1 ppm (Spodoptera litura) | pest or weed control at 1 ppm (Plutella xylostella) | pest or weed control at 1 ppm (Choristoneura magnanima) | pest or weed control at 1 ppm (Helicoverpa armigera) | pest or weed control at 100 ppm (Laodelphax striatellus) | pest or weed control at 100 ppm (Musca domestica) | pest or weed control at 100 ppm (Blattella germanica)

CN(C(=O)c1ccc(Cl)nc1)c1cccc(C(=O)Nc2c(Br)cc(C(F)(C(F)(F)F)C(F)(F)C(F)(F)F)cc2C(F)(F)F)c1 (stereo not drawn) [7-389]
≥ 70%: pest or weed control at 1 ppm (Spodoptera litura) | pest or weed control at 1 ppm (Plutella xylostella) | pest or weed control at 1 ppm (Choristoneura magnanima) | pest or weed control at 1 ppm (Helicoverpa armigera) | pest or weed control at 100 ppm (Laodelphax striatellus) | pest or weed control at 100 ppm (Musca domestica) | pest or weed control at 100 ppm (Blattella germanica)

CN(C(=O)c1c(F)cccc1F)c1cccc(C(=O)Nc2c(I)cc(C(F)(C(F)(F)F)C(F)(F)F)cc2C(F)(F)F)c1 [7-446]
≥ 70%: pest or weed control at 1 ppm (Spodoptera litura) | pest or weed control at 1 ppm (Plutella xylostella) | pest or weed control at 100 ppm (Laodelphax striatellus) | pest or weed control at 100 ppm (Musca domestica) | pest or weed control at 100 ppm (Blattella germanica)

CN(C(=O)c1ccccc1F)c1cccc(C(=O)Nc2c(Br)cc(C(F)(C(F)(F)F)C(F)(F)F)cc2Br)c1F [7-1105]
≥ 70%: pest or weed control at 1 ppm (Spodoptera litura) | pest or weed control at 1 ppm (Plutella xylostella) | pest or weed control at 100 ppm (Laodelphax striatellus) | pest or weed control at 100 ppm (Musca domestica) | pest or weed control at 100 ppm (Blattella germanica)

CN(C(=O)c1ccc(C#N)cc1)c1cccc(C(=O)Nc2c(Br)cc(C(F)(C(F)(F)F)C(F)(F)F)cc2Br)c1F [7-1125]
≥ 70%: pest or weed control at 1 ppm (Spodoptera litura) | pest or weed control at 1 ppm (Plutella xylostella) | pest or weed control at 1 ppm (Choristoneura magnanima) | pest or weed control at 1 ppm (Helicoverpa armigera) | pest or weed control at 100 ppm (Laodelphax striatellus) | pest or weed control at 100 ppm (Blattella germanica)

CN(C(=O)c1c(F)cccc1F)c1cccc(C(=O)Nc2c(Br)cc(C(F)(C(F)(F)F)C(F)(F)F)cc2Br)c1F [7-1126]
≥ 70%: pest or weed control at 1 ppm (Spodoptera litura) | pest or weed control at 1 ppm (Plutella xylostella) | pest or weed control at 100 ppm (Laodelphax striatellus) | pest or weed control at 100 ppm (Musca domestica) | pest or weed control at 100 ppm (Blattella germanica)

CN(C(=O)c1c(F)cccc1F)c1cccc(C(=O)Nc2c(I)cc(C(F)(C(F)(F)F)C(F)(F)F)cc2I)c1F [7-1282]
≥ 70%: pest or weed control at 1 ppm (Spodoptera litura) | pest or weed control at 1 ppm (Plutella xylostella) | pest or weed control at 100 ppm (Laodelphax striatellus) | pest or weed control at 100 ppm (Musca domestica) | pest or weed control at 100 ppm (Blattella germanica)

CN(C(=O)c1cccnc1Cl)c1cccc(C(=O)Nc2c(I)cc(C(F)(C(F)(F)F)C(F)(F)F)cc2I)c1F [7-1296]
≥ 70%: pest or weed control at 1 ppm (Spodoptera litura) | pest or weed control at 1 ppm (Plutella xylostella) | pest or weed control at 100 ppm (Laodelphax striatellus) | pest or weed control at 100 ppm (Musca domestica) | pest or weed control at 100 ppm (Blattella germanica)

CN(C(=O)c1ccc(Cl)nc1)c1cccc(C(=O)Nc2c(I)cc(C(F)(C(F)(F)F)C(F)(F)C(F)(F)F)cc2I)c1F (stereo not drawn) [7-1381]
≥ 70%: pest or weed control at 1 ppm (Spodoptera litura) | pest or weed control at 1 ppm (Plutella xylostella) | pest or weed control at 100 ppm (Laodelphax striatellus) | pest or weed control at 100 ppm (Musca domestica) | pest or weed control at 100 ppm (Blattella germanica)

CN(C(=O)c1ccccc1F)c1cccc(C(=O)Nc2c(Br)cc(C(F)(C(F)(F)F)C(F)(F)F)cc2C(F)(F)F)c1F [7-1575]
≥ 70%: pest or weed control at 1 ppm (Spodoptera litura) | pest or weed control at 1 ppm (Plutella xylostella) | pest or weed control at 100 ppm (Laodelphax striatellus) | pest or weed control at 100 ppm (Musca domestica) | pest or weed control at 100 ppm (Blattella germanica)

CN(C(=O)c1ccc(C#N)cc1)c1cccc(C(=O)Nc2c(Br)cc(C(F)(C(F)(F)F)C(F)(F)F)cc2C(F)(F)F)c1F [7-1595]
≥ 70%: pest or weed control at 1 ppm (Spodoptera litura) | pest or weed control at 1 ppm (Plutella xylostella) | pest or weed control at 1 ppm (Choristoneura magnanima) | pest or weed control at 1 ppm (Helicoverpa armigera) | pest or weed control at 100 ppm (Laodelphax striatellus) | pest or weed control at 100 ppm (Blattella germanica)

CN(C(=O)c1c(F)cccc1F)c1cccc(C(=O)Nc2c(Br)cc(C(F)(C(F)(F)F)C(F)(F)F)cc2C(F)(F)F)c1F [7-1596]
≥ 70%: pest or weed control at 1 ppm (Spodoptera litura) | pest or weed control at 1 ppm (Plutella xylostella) | pest or weed control at 100 ppm (Laodelphax striatellus) | pest or weed control at 100 ppm (Musca domestica) | pest or weed control at 100 ppm (Blattella germanica)

CN(C(=O)c1ccc(Cl)nc1)c1cccc(C(=O)Nc2c(Br)cc(C(F)(C(F)(F)F)C(F)(F)F)cc2C(F)(F)F)c1F [7-1617]
≥ 70%: pest or weed control at 1 ppm (Spodoptera litura) | pest or weed control at 1 ppm (Plutella xylostella) | pest or weed control at 1 ppm (Choristoneura magnanima) | pest or weed control at 1 ppm (Helicoverpa armigera) | pest or weed control at 100 ppm (Laodelphax striatellus) | pest or weed control at 100 ppm (Blattella germanica)

CN(C(=O)c1ccccc1F)c1cccc(C(=O)Nc2c(I)cc(C(F)(C(F)(F)F)C(F)(F)F)cc2C(F)(F)F)c1F [7-1731]
≥ 70%: pest or weed control at 1 ppm (Spodoptera litura) | pest or weed control at 1 ppm (Plutella xylostella) | pest or weed control at 10 ppm (Adoxophyes honmai) | pest or weed control at 1 ppm (Helicoverpa armigera) | pest or weed control at 100 ppm (Laodelphax striatellus) | pest or weed control at 100 ppm (Musca domestica) | pest or weed control at 100 ppm (Blattella germanica)

CN(C(=O)c1c(F)cccc1F)c1cccc(C(=O)Nc2c(I)cc(C(F)(C(F)(F)F)C(F)(F)F)cc2C(F)(F)F)c1F [7-1752]
≥ 70%: pest or weed control at 1 ppm (Spodoptera litura) | pest or weed control at 1 ppm (Plutella xylostella) | pest or weed control at 100 ppm (Laodelphax striatellus) | pest or weed control at 100 ppm (Musca domestica) | pest or weed control at 100 ppm (Blattella germanica)

CN(C(=O)c1cccnc1Cl)c1cccc(C(=O)Nc2c(I)cc(C(F)(C(F)(F)F)C(F)(F)F)cc2C(F)(F)F)c1F [7-1766]
≥ 70%: pest or weed control at 1 ppm (Spodoptera litura) | pest or weed control at 1 ppm (Plutella xylostella) | pest or weed control at 100 ppm (Laodelphax striatellus) | pest or weed control at 100 ppm (Musca domestica) | pest or weed control at 100 ppm (Blattella germanica)
